From patent US20240207269A1, “USES OF HETEROCYCLIC INHIBITORS OF ERK1/2” (Erasca, Inc., priority 2021, published 2024)

Test: First-in-Human (FIH) Phase 1 study comparing QW and QD regimens
Type: in vivo
Details: QW preferred to QD
Protocol: Both QW and QD regimens were evaluated in the First-in-Human (FIH) Phase 1 study. […] The observed data in indicate that having an uninterrupted coverage over IC90 for 1-2 days can improve cancer cell killing and maintaining Ctrough below IC50 can help normal cell recovery and can improve tolerability.

Cc1cnc(NC2CCOCC2)nc1-n1cnc(C(=O)N[C@H](CN)c2cc(F)cc(Cl)c2)c1 [Compound 1, (S)—N-(2-amino-1-(3-chloro-5-fluorophenyl)ethyl)-1-(5-methyl-2-((tetrahydro-2H-pyran-4-yl)amino)pyrimidin-4-yl)-1H-imidazole-4-carboxamide]
Efficacy, QW regimen compared to QD regimen: better efficacy | Skin toxicities, QW regimen compared to QD regimen: less frequent skin toxicities
